Results as given in patent US5206233A, “Substituted thiazepines as central nervous system agents” (Warner-Lambert Company, priority 1991, dated 1993).
Structures can show the parent of a compound that is named as a salt.

Tests used:
guinea pig ileum = test: inhibition of contraction of electrically stimulated guinea pig ileum; conditions: Cavia porcellus, read-out: Inhibition of Contraction of Electrical Stimulation Guinea Pig Ileum IC50
Experimental: (§1) The compounds of Formula I are valuable sigma ligands. […] Additionally, the compounds of Formula I were tested for their ability to inhibit locomotor activity in mice according to the assay described by McLean, J. R., et al, Pharmacology, Biochemistry and Behavior 8:97-99 (1978); for their ability to inhibit contractions of electrically stimulated guinea pig ileum according to the method of Campbell, B. G., et al, Journal of Neuroscience 9 3380-3384 (1989) and Bass, P., et al, Journal of Pharmacology and Experimental Therapeutics 186:183-198 (1973). These tests further support the antipsychotic activity of the compounds of Formula I. The above test methods are incorporated herein by reference. The data in the table show the activity of representative compounds of Formula I.

[1] = tested on: locomotor activity in mice; test: inhibition of locomotor activity in mice; format: in vivo; conditions: Mus musculus, IP
Experimental: as §1

sigma receptor [2] = test: 3-PPP binding (inhibition of (+)-[3H]-3-PPP, a sigma ligand, binding); conditions: inhibition of (+)-[3H]-3-PPP binding, method of Largent et al
sigma receptor [3] = conditions: known antipsychotic agents; literature; cited from earlier work

| SMILES | IC50 (guinea pig ileum) [nM] | IC50 (sigma receptor [2]) [nM] | ED50 [1] [mg/kg] | interaction with the sigma receptor (in words) (sigma receptor [3]) |
| --- | --- | --- | --- | --- |
| CCCN1CCSC(c2ccc(Cl)cc2)CC1 (stereo not drawn) [Example 10, Hexahydro-7-(4-chlorophenyl)-4-propyl-1,4-thiazepine] |  | 21.3 |  |  |
| O=C1CC2(CCCC2)CC(=O)N1CCCCN1CCN(c2nsc3ccccc23)CC1 [tiospirone] |  |  |  | interact with the sigma receptor |
| O=C(CCCN1CCC(O)(c2ccc(Cl)cc2)CC1)c1ccc(F)cc1 [haloperidol] |  |  |  | interact with the sigma receptor |
| C[C@@H]1CN(CCCn2c3ccccc3c3ccccc32)C[C@H](C)N1 [rimcazole] |  |  |  | interact with the sigma receptor |
| CN1CCSC(c2ccc(Cl)cc2)CC1 (stereo not drawn) [Example 6, Hexahydro-7-(4-chlorophenyl)-4-methyl-1,4-thiazepine, hydrochloride] |  | 121 |  |  |
| CCN1CCC[C@H]1CNC(=O)c1c(OC)ccc(Br)c1OC [remoxapride] |  |  |  | interact with the sigma receptor |

Further compounds by falling IC50 (sigma receptor [2]), results first:

| IC50 (guinea pig ileum) [nM] | IC50 (sigma receptor [2]) [nM] | SMILES | ED50 [1] [mg/kg] | interaction with the sigma receptor (in words) (sigma receptor [3]) |
| --- | --- | --- | --- | --- |
|  | 16.5 | COc1ccc(C2CCN(C)CCS2)cc1 (stereo not drawn) [Example 2, Hexahydro-7-(4-methoxyphenyl)-4-methyl-1,4-thiazepine, hydrochloride] |  |  |
|  | 9.2 | COc1ccc(C2CCN(CCCC(=O)c3cccnc3)CCS2)cc1 (stereo not drawn) [Example 13, 1-(3-Pyridinyl)-7-(4-methoxyphenyl)-4-(tetrahydro-1,4-thiazepin-4(2H)-yl)-1-butanone, dihydrochloride] |  |  |
| 13100 | 6.39 | Cl.c1ccc(C2CCN(CCCCc3ccncc3)CCS2)cc1 (stereo not drawn) [Example 14, Hexahydro-7-(phenyl)-4-[4-(4-pyridinyl)butyl]-1,4-thiazepine, hydrochloride] | 13.1 |  |
|  | 6.22 | CCN1CCSC(c2ccc(OC)cc2)CC1 (stereo not drawn) [Example 3, Hexahydro-7-(4-methoxyphenyl)-4-ethyl-1,4-thiazepine] |  |  |
|  | 2.62 | Clc1ccc(C2CCN(CCCCc3ccncc3)CCS2)cc1 (stereo not drawn) [Example 16, Hexahydro-7-(4-chlorophenyl)-4-[4-(4-pyridinyl)butyl]-1,4-thiazepine] | 19 |  |
| 4000 | 2.5 | c1ccc(C2CCN(CCCCc3cccnc3)CCS2)cc1 (stereo not drawn) [Example 15, Hexahydro-7-(phenyl)-4-[4-(3-pyridinyl)butyl]-1,4-thiazepine] | 17.9 |  |
|  | 1.62 | COc1ccc(C2CCN(C(C)C)CCS2)cc1 (stereo not drawn) [Example 4, Hexahydro-7-(4-methoxyphenyl)-4-isopropyl-1,4-thiazepine, hydrochloride] |  |  |
| 7300 | 1.32 | COc1ccc(C2CCN(CCCCc3ccncc3)CCS2)cc1 (stereo not drawn) [Example 12, Hexahydro-7-(4-methoxyphenyl)-4-[4-(4-pyridinyl)butyl]-1,4-thiazepine] | 13.9 |  |
